Source: patent publication US11337984B2, “Methods for treating, diagnosing and prognosing a haematological malignancy” (Institut de Recerca Contra La Leucèmia Josep Carreras, priority 2014, dated 2022)

Tested on: HL-60, KG-1, MonoMac-1 and Kasumi-1 AML cell lines
Experiment: Cell viability of AML cell lines by flow cytometry (7-AAD/Hoechst, volumetric count)
Assay type: cell-based, human
Settings: subtype-specific 5HTR antagonists, 0.1, 1 and 10 μM, 72 h
Experimental: FIG. 1. […] 10^6 HL-60, KG-1, MonoMac-1 and Kasumi-1 cells per mL in complete RPMI media were treated with 0.1, 1 and 10 μM Apomorphine for 72 h. […] Cells were stained with 7-aminoactinomycin D (7-AAD, CAS no. 7240-37-1) and Hoechst 33342 (CAS no. 23491-52-3) and analyzed by flow cytometry. […] Cell number was calculated by volumetric count. A. The mean (symbol) for each AML cell line and standard deviation (error bars) from 6 different biological replicates are represented. B. The average corresponding to the four different AML cell lines is represented. *p<0.05.
FIG. 2. […] Cell number was calculated by volumetric count. A. The mean (symbol) for each AML cell line and standard deviation (error bars) from 6 different biological replicates are represented. B. AML cell lines were treated with 10 μM Apomorphine or Methiothepin in the presence or absence of 5-CT or 5-HT. *p<0.05. Apo: apomorphine; Methio: methiothepine.
In order to test the anti-leukaemic effect of 5HTR antagonists, HL-60 (Collins, Gallo et al. Nature. 1977; 270(5635):347-9), MonoMac-1 (Steube, Teepe et al. Leuk Res. 1997; 21(4):327-35), KG-1 (Koeffler and Golde. Science. 1978; 200(4346):1153-4) and Kasumi-1 (Asou, Tashiro et al. Blood. 1991; 77(9):2031-6) AML (Acute Myeloid Leukaemia) cell lines were treated with the broad 5HTR antagonist Apomorphine (CAS no. 314-19-2) at different doses for 72 h. One million cells per mL were seeded in complete RPMI media supplemented with 10% fetal bovine serum in a 96-well plate. The concentration used for the Apomorphine treatment was 0.1, 1 and 10 μM.
The human 5HTR family is composed by 7 subtypes (from 1 to 7) of receptors […]. HL-60, KG-1, MonoMac-1 and Kasumi-1 AML cell lines were incubated with subtype-specific 5HTR antagonists: Apomorphine (type 1, 2 and 5), Methiothepin (type 1 and 2) (CAS no. 74611-28-2), Amperozide (type 2) (CAS no. 75558-90-6), GR113808 (type 4) (CAS no. 144625-51-4). 72 h after treatment, cell viability was determined by flow cytometry. Cells were stained with 7-AAD (CAS no. 7240-37-1) and Hoechst 33342 (CAS no. 23491-52-3). Viability cells were identified by 7-AAD staining exclusion and the presence of Hoechst positive stain. Cell counts were measured by volume. […] In fact, the anti-leukaemic effect was reversed in the presence of a competitive agonist such as the natural ligand 5-HT (CAS no. 153-98-0) or 5-CT (CAS no. 74885-72-6).

SMILES | cell death on AML cell lines
CCNC(=O)N1CCN(CCCC(c2ccc(F)cc2)c2ccc(F)cc2)CC1 [Amperozide, 4-[4,4-bis(4-fluorophenyl)butyl]-N-ethylpiperazine-1-carboxamide] | induced cell death
Cn1cc(C(=O)OCC2CCN(CCNS(C)(=O)=O)CC2)c2ccccc21 [GR113808] | Only Apomorphine, Methiothepin and Amperozide induced cell death
